# Laboratory results as given in patent US9187464B2, “TRPV4 antagonists” (GlaxoSmithKline Intellectual Property (No. 2) Limited, priority 2011, dated 2015).
# Target: T1, human TRPV4 (Homo sapiens, UniProt Q9HBA0)
# T1 construct: expressed in transfected cells; host or cells: HEK-293-MSR-II cells transduced with 1% BacMam virus
# Test: Ligand-gated assay (Fluo4 calcium, FLIPR; inhibition of agonist-induced activation)
# Type: cell-based
# Conditions: HEK-293-MSR-II cells transduced with BacMam human TRPV4; agonist at EC80
# In short: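 Agonist (EC80) response read on FLIPR as Fluo-4 (2 uM) fluorescence after 10-min room-temperature compound exposure in HBSS/HEPES pH 7.4 with 0.01% Chaps. Cells: HEK-293-MSR-II expressing human TRPV4 via BacMam; output is IC50 of inhibition.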
# T1 sequence (Q9HBA0 whole entry): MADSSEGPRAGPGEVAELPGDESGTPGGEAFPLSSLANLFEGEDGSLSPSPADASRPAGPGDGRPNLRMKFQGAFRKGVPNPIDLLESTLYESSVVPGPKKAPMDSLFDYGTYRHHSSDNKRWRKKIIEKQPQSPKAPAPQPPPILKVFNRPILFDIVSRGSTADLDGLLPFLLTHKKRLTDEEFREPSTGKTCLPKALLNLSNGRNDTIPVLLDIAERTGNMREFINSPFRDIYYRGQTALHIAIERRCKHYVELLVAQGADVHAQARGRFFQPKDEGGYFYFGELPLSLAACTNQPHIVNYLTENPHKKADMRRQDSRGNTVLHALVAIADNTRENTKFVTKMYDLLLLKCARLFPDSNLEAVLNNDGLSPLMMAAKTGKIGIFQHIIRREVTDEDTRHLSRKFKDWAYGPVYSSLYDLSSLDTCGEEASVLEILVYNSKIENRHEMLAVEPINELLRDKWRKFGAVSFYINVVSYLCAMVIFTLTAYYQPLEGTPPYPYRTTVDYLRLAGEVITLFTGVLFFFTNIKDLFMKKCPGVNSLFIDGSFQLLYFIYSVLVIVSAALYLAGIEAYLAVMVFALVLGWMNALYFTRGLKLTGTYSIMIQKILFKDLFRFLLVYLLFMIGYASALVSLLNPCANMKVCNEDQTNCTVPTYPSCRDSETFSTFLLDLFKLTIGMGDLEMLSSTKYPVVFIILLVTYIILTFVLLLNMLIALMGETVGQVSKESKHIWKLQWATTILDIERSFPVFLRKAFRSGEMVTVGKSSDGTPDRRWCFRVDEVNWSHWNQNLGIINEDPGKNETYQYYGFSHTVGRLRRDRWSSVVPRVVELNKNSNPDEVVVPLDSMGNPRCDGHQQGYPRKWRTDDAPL
row,SMILES,IC50
1,"Cc1cc(Cl)ncc1N1C[C@@]2(CCC[C@H](Cn3cnc4ccc(C#N)cc43)C2)OC1=O [Example 120, 1-(((5S,7S)-3-(6-chloro-4-methylpyridin-3-yl)-2-oxo-1-oxa-3-azaspiro[4.5]decan-7-yl)methyl)-1H-benzo[d]imidazole-6-carbonitrile]",0.1 to 10 nM
2,"CC(C)(CN1C[C@@]2(CCC[C@H](Cn3cnc4ccc(C#N)cc43)C2)OC1=O)c1nc(-c2ccccc2)no1 [Example 75, 1-({(5S,7S)-3-[2-methyl-2-(3-phenyl-1,2,4-oxadiazol-5-yl)propyl]-2-oxo-1-oxa-3-azaspiro[4.5]dec-7-yl}methyl)-1H-benzimidazole-6-carbonitrile]",0.1 to 10 nM
3,"CC(C)(C)n1ncc(N2C[C@@]3(CCC[C@](C)(Cn4cnc5ccc(C#N)cc54)C3)OC2=O)n1 [Example 50, 1-(((5S,7S)-3-(2-(tert-butyl)-2H-1,2,3-triazol-4-yl)-7-methyl-2-oxo-1-oxa-3-azaspiro[4.5]decan-7-yl)methyl)-1H-benzo[d]imidazole-6-carbonitrile]",0.1 to 10 nM
4,"CCc1noc(C(C)(C)CN2C[C@@]3(CCC[C@H](Cn4cnc5ccc(C#N)cc54)C3)OC2=O)n1 [Example 6, 1-({(5S,7S)-3-[2-(3-Ethyl-1,2,4-oxadiazol-5-yl)-2-methylpropyl]-2-oxo-1-oxa-3-azaspiro[4.5]dec-7-yl}methyl)-1H-benzimidazole-6-carbonitrile]",0.1 to 10 nM
5,"COc1cc(Cl)ncc1N1C[C@@]2(CCC[C@](C)(Cn3cnc4ccc(C#N)cc43)C2)OC1=O [Example 122, 1-(((5S,7S)-3-(6-chloro-4-methoxypyridin-3-yl)-7-methyl-2-oxo-1-oxa-3-azaspiro[4.5]decan-7-yl)methyl)-1H-benzo[d]imidazole-6-carbonitrile]",0.1 to 10 nM
6,"Cc1nc(C(F)(F)F)ncc1N1C[C@@]2(CCC[C@H](Cn3cnc4ccc(C#N)cc43)C2)OC1=O [Example 124, 1-(((5S,7S)-3-(4-methyl-2-(trifluoromethyl)pyrimidin-5-yl)-2-oxo-1-oxa-3-azaspiro[4.5]decan-7-yl)methyl)-1H-benzo[d]imidazole-6-carbonitrile]",10 to 50 nM
7,"CC(C)(CN1C[C@@]2(CCC[C@H](Cn3cnc4ccc(C#N)cc43)C2)OC1=O)c1nnc(-c2ccccc2)o1 [Example 5, 1-({(5S,7S)-3-[2-Methyl-2-(5-phenyl-1,3,4-oxadiazol-2-yl)propyl]-2-oxo-1-oxa-3-azaspiro[4.5]dec-7-yl}methyl)-1H-benzimidazole-6-carbonitrile]",0.1 to 10 nM
8,"CC(C)c1noc(C(C)(C)CN2C[C@@]3(CCC[C@H](Cn4cnc5ccc(C#N)cc54)C3)OC2=O)n1 [Example 76, 1-[((5S,7S)-3-{2-methyl-2-[3-(1-methylethyl)-1,2,4-oxadiazol-5-yl]propyl}-2-oxo-1-oxa-3-azaspiro[4.5]dec-7-yl)methyl]-1H-benzimidazole-6-carbonitrile]",0.1 to 10 nM
9,"CC(C)(C)c1noc(N2C[C@@]3(CCC[C@H](Cn4cnc5ccc(C#N)cc54)C3)OC2=O)c1F [Example 47, 1-(((5S,7S)-3-(3-(tert-butyl)-4-fluoroisoxazol-5-yl)-2-oxo-1-oxa-3-azaspiro[4.5]decan-7-yl)methyl)-1H-benzo[d]imidazole-6-carbonitrile]",0.1 to 10 nM
10,"COC(C)c1noc(C(C)(C)CN2C[C@@]3(CCC[C@H](Cn4cnc5ccc(C#N)cc54)C3)OC2=O)n1 (stereo partly drawn) [Example 154, 1-{[(5S,7S)-3-(2-methyl-2-{3-[1-(methyloxy)ethyl]-1,2,4-oxadiazol-5-yl}propyl)-2-oxo-1-oxa-3-azaspiro[4.5]dec-7-yl]methyl}-1H-benzimidazole-6-carbonitrile]",0.1 to 10 nM
11,"CC(C)(CN1C[C@@]2(CCC[C@H](Cn3cnc4ccc(C#N)cc43)C2)OC1=O)c1nc(C2CCOCC2)no1 [Example 65, 1-[((5S,7S)-3-{2-methyl-2-[3-(tetrahydro-2H-pyran-4-yl)-1,2,4-oxadiazol-5-yl]propyl}-2-oxo-1-oxa-3-azaspiro[4.5]dec-7-yl)methyl]-1H-benzimidazole-6-carbonitrile]",10 to 50 nM
12,"COC(C)(C)c1ccc(N2C[C@@]3(CCC[C@](C)(Cn4cnc5ccc(C#N)cc54)C3)OC2=O)cn1 [Example 55, 1-(((5S,7S)-3-(6-(2-methoxypropan-2-yl)pyridin-3-yl)-7-methyl-2-oxo-1-oxa-3-azaspiro[4.5]decan-7-yl)methyl)-1H-benzo[d]imidazole-6-carbonitrile]",0.1 to 10 nM
13,"CC(C)(CN1C[C@@]2(CCC[C@H](Cn3cnc4c(Cl)cc(C#N)cc43)C2)OC1=O)c1nc(-c2ccccc2)no1 [Example 73, 4-chloro-1-({(5S,7S)-3-[2-methyl-2-(3-phenyl-1,2,4-oxadiazol-5-yl)propyl]-2-oxo-1-oxa-3-azaspiro[4.5]dec-7-yl}methyl)-1H-benzimidazole-6-carbonitrile]",0.1 to 10 nM
14,"N#Cc1cc(Cl)c2ncn(C[C@H]3CCC[C@]4(C3)CN(CC3(c5nc(C6CCCC6)no5)CCOCC3)C(=O)O4)c2c1 [Example 85, 4-chloro-1-[((5S,7S)-3-{[4-(3-cyclopentyl-1,2,4-oxadiazol-5-yl)tetrahydro-2H-pyran-4-yl]methyl}-2-oxo-1-oxa-3-azaspiro[4.5]dec-7-yl)methyl]-1H-benzimidazole-6-carbonitrile]",0.1 to 10 nM
15,"Cc1ccc(-n2cc(CN3C[C@@]4(CCC[C@H](Cn5cnc6ccc(C#N)cc65)C4)OC3=O)nn2)cc1 [Example 91, 1-[((5S,7S)-3-{[1-(4-methylphenyl)-1H-1,2,3-triazol-4-yl]methyl}-2-oxo-1-oxa-3-azaspiro[4.5]dec-7-yl)methyl]-1H-benzimidazole-6-carbonitrile]",50 to 500 nM
16,"N#Cc1ccc2ncn(C[C@H]3CCC[C@]4(C3)CN(Cc3cn(C5CCCCC5)nn3)C(=O)O4)c2c1 [Example 97, 1-({(5S,7S)-3-[(1-cyclohexaneyl-1H-1,2,3-triazol-4-yl)methyl]-2-oxo-1-oxa-3-azaspiro[4.5]dec-7-yl}methyl)-1H-benzimidazole-6-carbonitrile]",10 to 50 nM
17,"N#Cc1ccc2ncn(C[C@H]3CCC[C@]4(C3)CN(Cc3cc(-c5ccc(Cl)cc5)no3)C(=O)O4)c2c1 [Example 67, 1-[((5S,7S)-3-{[3-(4-chlorophenyl)-5-isoxazolyl]methyl}-2-oxo-1-oxa-3-azaspiro[4.5]dec-7-yl)methyl]-1H-benzimidazole-6-carbonitrile]",10 to 50 nM
18,"COCc1noc(C(C)(C)CN2C[C@@]3(CCC[C@H](Cn4cnc5ccc(C#N)cc54)C3)OC2=O)n1 [Example 81, 1-{[(5S,7S)-3-(2-methyl-2-{3-[(methyloxy)methyl]-1,2,4-oxadiazol-5-yl}propyl)-2-oxo-1-oxa-3-azaspiro[4.5]dec-7-yl]methyl}-1H-benzimidazole-6-carbonitrile]",0.1 to 10 nM
19,C[C@]1(Cn2cnc3ccc(C#N)cc32)CCC[C@@]2(CN(c3ccc(Cl)nc3)C(=O)O2)C1 [Example 18],10 to 50 nM
20,"CC(C)(C#N)c1noc(N2C[C@@]3(CCC[C@](C)(Cn4cnc5ccc(C#N)cc54)C3)OC2=O)c1Cl [Example 107, 1-(((5S,7S)-3-(4-chloro-3-(2-cyanopropan-2-yl)isoxazol-5-yl)-7-methyl-2-oxo-1-oxa-3-azaspiro[4.5]decan-7-yl)methyl)-1H-benzo[d]imidazole-6-carbonitrile]",0.1 to 10 nM
21,"CC(C)(C)c1noc(N2C[C@@]3(CCC[C@](C)(Cn4cnc5ccc(C#N)cc54)C3)OC2=O)c1F [Example 44, 1-(((5S,7S)-3-(3-(tert-butyl)-4-fluoroisoxazol-5-yl)-7-methyl-2-oxo-1-oxa-3-azaspiro[4.5]decan-7-yl)methyl)-1H-benzo[d]imidazole-6-carbonitrile]",0.1 to 10 nM
22,CCOc1cnc(CN2C[C@@]3(CCC[C@](C)(Cn4cnc5ccc(C#N)cc54)C3)OC2=O)cn1 [Example 155],0.1 to 10 nM
23,"COc1cc(Cl)ncc1N1C[C@@]2(CCC[C@H](Cn3cnc4ccc(C#N)cc43)C2)OC1=O [Example 123, 1-(((5S,7S)-3-(6-chloro-4-methoxypyridin-3-yl)-2-oxo-1-oxa-3-azaspiro[4.5]decan-7-yl)methyl)-1H-benzo[d]imidazole-6-carbonitrile]",0.1 to 10 nM
24,"Cc1noc(N2C[C@@]3(CCC[C@H](Cn4cnc5ccc(C#N)cc54)C3)OC2=O)c1C [Example 58, 1-(((5S,7S)-3-(3,4-dimethylisoxazol-5-yl)-2-oxo-1-oxa-3-azaspiro[4.5]decan-7-yl)methyl)-1H-benzo[d]imidazole-6-carbonitrile]",50 to 500 nM
25,"N#Cc1ccc2ncn(C[C@H]3CCC[C@]4(C3)CN(Cc3cn(-c5ccccc5)nn3)C(=O)O4)c2c1 [Example 87, 1-({(5S,7S)-2-oxo-3-[(1-phenyl-1H-1,2,3-triazol-4-yl)methyl]-1-oxa-3-azaspiro[4.5]dec-7-yl}methyl]-1H-benzimidazole-6-carbonitrile]",10 to 50 nM
26,"C[C@]1(Cn2cnc3ccc(C#N)cc32)CCC[C@@]2(CN(Cc3cn(-c4ccccc4)nn3)C(=O)O2)C1 [Example 8, 1-({(5S,7S)-7-Methyl-2-oxo-3-[(1-phenyl-1H-1,2,3-triazol-4-yl)methyl]-1-oxa-3-azaspiro[4.5]dec-7-yl}methyl)-1H-benzimidazole-6-carbonitrile]",0.1 to 10 nM
27,"COc1nc(C)ccc1N1C[C@@]2(CCC[C@](C)(Cn3cnc4ccc(C#N)cc43)C2)OC1=O [Example 126, 1-(((5S,7S)-3-(2-methoxy-6-methylpyridin-3-yl)-7-methyl-2-oxo-1-oxa-3-azaspiro[4.5]decan-7-yl)methyl)-1H-benzo[d]imidazole-6-carbonitrile]",0.1 to 10 nM
28,"CC(C)(C)c1cnc(N2C[C@@]3(CCC[C@](C)(Cn4cnc5ccc(C#N)cc54)C3)OC2=O)cn1 [Example 53, 1-(((5S,7S)-3-(5-(tert-butyl)pyrazin-2-yl)-7-methyl-2-oxo-1-oxa-3-azaspiro[4.5]decan-7-yl)methyl)-1H-benzo[d]imidazole-6-carbonitrile]",0.1 to 10 nM
